Test results published in patent US7186886B2, “Aliphatic acyl transferase genes” (International Flower Developments Proprietary Limited, priority 2000, dated 2007).

What was measured:
[1] = Colour of anthocyanin solutions in McIlvaine buffer evaluated with Colour charts (Royal Horticulture Society); assay type: physicochemical; settings: for Number in Colour chart at pH 5.3: McIlvaine buffer pH 5.3; for Number in Colour chart at pH 5.3 / Number in Colour chart at pH 5.6 / Number in Colour chart at pH 6.0: greater number = bluer, A = bluest within a number; for Number in Colour chart at pH 5.6: McIlvaine buffer pH 5.6; for Number in Colour chart at pH 6.0: McIlvaine buffer pH 6.0
Description: Delphinidin 3,5-diglucoside, awobanin (delphinidin 3-(coumaroyl) glucoside-5-glucoside), malonyl-awobanin (delphinidin 3-(coumaroyl)glucoside-5-(malonyl) glucoside) were dissolved in McIlvaine buffer (pH 5.3, pH 5.6, pH 6.0) in concentrations of 0.1 mM, 0.3 mM, 0.5 mM, respectively, and colours of the solutions were evaluated using Colour charts (Royal Horticulture Society). Delphinidin 3,5-diglucoside can be obtained from its 3,5-diacetylglucoside form by removing the acetyl portion in alkaline hydrolysis reaction (Tetrahedron, 48, 4313–4326, 1992). Awobanin can be obtained from malonyl-awobanin by removing its 5-malonyl portion (Tetrahedron Lett. 24, 4863–4866, 1983). Malonyl-awobanin was obtained by extraction from plants using the method as set forth in Tetrahedron Lett. 24, 4863–4866, 1983. The greater the number in the Colour chart, the bluer the colour is. When the number is the same, symbol A represents the bluest colour.

[2] = Malonyl transferase activity of E. coli-expressed gene product, shisonin as substrate, HPLC detection; assay type: biochemical
Description: Measurement of activity of malonyl transferase was conducted using reaction solution 100 μl (potassium phosphate of final concentration of 20 mM, pH 7.0, containing shisonin 10 μg, malonyl CoA 10 μg, and an enzyme sample to be measured, dissolved in 0.01% trifluoro acetic acid). After reaction was carried out at 30° C. for 20 minutes, the reaction was terminated by adding 200 μl of 0.05% TFA aqueous solution cooled on ice. Quantification of shisonin and malonyl-shisonin was conducted by reverse phase high performance liquid chromatography (DYNAMAX HPLC system) using a Shodex Asahipak ODP-50 4E column, and using a linear concentration gradient with 0.5% TFA solution as the solution and 0.5% TFA, 50% acetonitrile aqueous solution as the solution, such that concentration of the B solution was 45%, 45%, 55%, 100%, 100%, 45%, and 45%, at time 0, 3, 17, 18, 23, 24, and 30 minutes, respectively, after the start of separation, at a flow rate of 0.7 ml/min, using 50 μl of reaction solution, monitoring absorption at 520 nm. […]
Enzyme activity was measured using a supernatant (soluble fraction) obtained after centrifuging. […]
As in Example 7, using a plasmid constructed such that the PfMaT1 gene obtained in Example 9 can be expressed as a fusion protein fused with LacZ protein, the PfMaT1 gene was expressed in Escherichia coli as in Example 7, and enzyme activity was measured. […]

Molecule	Number in Colour chart at pH 5.3 ([1]; 0.1 mM)	Number in Colour chart at pH 5.6 ([1]; 0.1 mM)	Number in Colour chart at pH 6.0 ([1]; 0.1 mM)	Number in Colour chart at pH 5.3 ([1]; 0.3 mM)	Number in Colour chart at pH 6.0 ([1]; 0.3 mM)	Number in Colour chart at pH 5.6 ([1]; 0.3 mM)	Number in Colour chart at pH 5.3 ([1]; 0.5 mM)	Number in Colour chart at pH 5.6 ([1]; 0.5 mM)	Number in Colour chart at pH 6.0 ([1]; 0.5 mM)	Colour of solution compared among the three anthocyanins ([1]; all concentrations and pH, versus delphinidin 3,5-diglucoside and awobanin)	Acyl transfer to shisonin with other acyl CoA substrates (new HPLC peak) ([2]; acetyl CoA, methylmalonyl CoA, or succinyl CoA in place of malonyl CoA)	Malonyl transferase activity (formation of malonyl-shisonin) ([2]; shisonin and malonyl CoA, 30° C., 20 minutes, pH 7.0, soluble extract of expressing Escherichia coli)
O=C(/C=C/c1ccc(O)cc1)OC[C@H]1O[C@@H](Oc2cc3c(O[C@@H]4O[C@H](CO)[C@@H](O)[C@H](O)[C@H]4O)cc(O)cc3[o+]c2-c2cc(O)c(O)c(O)c2)[C@H](O)[C@@H](O)[C@@H]1O [Awobanin, delphinidin 3-(coumaroyl) glucoside-5-glucoside]	85C	85A	91B	86D	91A	–	–	–	–	–	–	–
OC[C@H]1O[C@@H](Oc2cc3c(O[C@@H]4O[C@H](CO)[C@@H](O)[C@H](O)[C@H]4O)cc(O)cc3[o+]c2-c2cc(O)c(O)c(O)c2)[C@H](O)[C@@H](O)[C@@H]1O [Delphinidin 3,5-diglucoside]	84C	84C	–	85A	88C	86D	86D	90B	88B/C	–	–	–
O=C(O)CC(=O)OC[C@H]1O[C@@H](Oc2cc(O)cc3[o+]c(-c4cc(O)c(O)c(O)c4)c(O[C@@H]4O[C@H](COC(=O)/C=C/c5ccc(O)cc5)[C@@H](O)[C@H](O)[C@H]4O)cc23)[C@H](O)[C@@H](O)[C@@H]1O [Malonyl-awobanin, delphinidin 3-(coumaroyl)glucoside-5-(malonyl) glucoside]	85C	91B	91B	92A	96C	93B	93B	–	96A	the bluest	–	–
SsMaT1: Salvia splendens malonyl transferase gene product (SEQ ID NO: 23), expressed in E. coli from pQE-30Xa-SsMaT1 (protein, listed as Salvia splendens, possible His tag from pQE-30Xa) TTTTILETCHIPPPPAANDLSIPLSFFDIKWLHYHPVRRLLFYHHPSSKSQFLHTIVPHLKQSLSLALTHYLPVAGNLLYPSNTEKFPQLRYAAGDSVPVTIAESNSDFESLTGNHTRDADQFYDLLPPIPPIEEESDWKLINIFAVQITLFPGEGICIGFSNHHCLGDASSIVGFISAWGEINGIGGYEGFLSNHSDSLSLPIFDRSFINDPNKIDAIFWKVLSNMPLKTASFPLPTNSVSSTFLLRSSDIEKLKTATKSPASSFVAAAAFVWSCMVKSGDKSDENAPELFIMPADASGSVDPPMPENYFGNCIVSSVAQVERGKLAAEDGFAVAAEAIGGEIEGKLKNSDEILSGAENWMSDMFKCFGMSVLGVSGSPKFDLLKADFGWGKASKLEVLSIDGENHSMSLCSSSDFNGGLEVGLSLPSESMAAFEEVFSASMMAASGPASRSPALVEPL	–	–	–	–	–	–	–	–	–	–	a new peak in addition to shisonin was observed	malonyl-shisonin was produced
